This passage reports Ki results from US20230295200A1 (REGENTS OF THE UNIVERSITY OF MICHIGAN, priority 2022, published 2023).

pKi: −log10 of the molar value.

The target in assay [1] is T1, STAT6 protein (Homo sapiens, UniProt P42226).
T1 sequence (P42226 1-847): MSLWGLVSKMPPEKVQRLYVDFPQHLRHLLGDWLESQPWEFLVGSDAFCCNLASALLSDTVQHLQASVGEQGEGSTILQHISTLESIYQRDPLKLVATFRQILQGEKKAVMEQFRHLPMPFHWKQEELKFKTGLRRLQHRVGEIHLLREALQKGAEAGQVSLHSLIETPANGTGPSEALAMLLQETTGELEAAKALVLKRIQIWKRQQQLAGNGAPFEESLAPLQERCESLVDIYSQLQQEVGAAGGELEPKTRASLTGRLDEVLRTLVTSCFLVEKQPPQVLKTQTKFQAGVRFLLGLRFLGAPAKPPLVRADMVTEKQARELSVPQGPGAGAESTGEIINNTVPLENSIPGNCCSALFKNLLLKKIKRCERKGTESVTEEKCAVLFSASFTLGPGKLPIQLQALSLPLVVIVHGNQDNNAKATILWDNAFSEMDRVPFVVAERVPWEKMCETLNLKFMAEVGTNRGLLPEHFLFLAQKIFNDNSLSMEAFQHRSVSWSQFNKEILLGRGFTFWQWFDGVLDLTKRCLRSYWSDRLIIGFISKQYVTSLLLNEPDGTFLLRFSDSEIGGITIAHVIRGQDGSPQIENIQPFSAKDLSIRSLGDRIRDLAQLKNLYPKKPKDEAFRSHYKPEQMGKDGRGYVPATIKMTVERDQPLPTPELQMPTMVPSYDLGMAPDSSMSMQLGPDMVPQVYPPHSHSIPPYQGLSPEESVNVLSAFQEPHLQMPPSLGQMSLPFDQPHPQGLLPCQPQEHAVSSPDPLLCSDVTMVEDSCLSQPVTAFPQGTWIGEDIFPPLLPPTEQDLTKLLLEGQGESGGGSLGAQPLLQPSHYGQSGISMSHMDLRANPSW
As to the kind of experiment: Fluorescence polarization (FP) binding assay, STAT6. To be noted: FP competition, 5 nM fluorescein-labeled tracer, 200 nM protein, PBS pH7.4; read-out: Binding STAT6. The method, boiled down:
(§1)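 Each well holds 200 nM STAT5 and/or STAT6 with 5 nM fluorescent tracer in PBS pH 7.4 (0.01% BGG, 0.01% Tween-20, 2 mM DTT). Binding reaches equilibrium over 1 h at room temperature after brief shaking, and polarization data are fitted nonlinearly.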
(In general: Fluorescence polarisation rises when a labelled molecule tumbles more slowly, as on binding a larger partner.)

Assay [2] deals with T2, STAT5A (Homo sapiens, UniProt P42229).
T2 sequence (P42229 1-794): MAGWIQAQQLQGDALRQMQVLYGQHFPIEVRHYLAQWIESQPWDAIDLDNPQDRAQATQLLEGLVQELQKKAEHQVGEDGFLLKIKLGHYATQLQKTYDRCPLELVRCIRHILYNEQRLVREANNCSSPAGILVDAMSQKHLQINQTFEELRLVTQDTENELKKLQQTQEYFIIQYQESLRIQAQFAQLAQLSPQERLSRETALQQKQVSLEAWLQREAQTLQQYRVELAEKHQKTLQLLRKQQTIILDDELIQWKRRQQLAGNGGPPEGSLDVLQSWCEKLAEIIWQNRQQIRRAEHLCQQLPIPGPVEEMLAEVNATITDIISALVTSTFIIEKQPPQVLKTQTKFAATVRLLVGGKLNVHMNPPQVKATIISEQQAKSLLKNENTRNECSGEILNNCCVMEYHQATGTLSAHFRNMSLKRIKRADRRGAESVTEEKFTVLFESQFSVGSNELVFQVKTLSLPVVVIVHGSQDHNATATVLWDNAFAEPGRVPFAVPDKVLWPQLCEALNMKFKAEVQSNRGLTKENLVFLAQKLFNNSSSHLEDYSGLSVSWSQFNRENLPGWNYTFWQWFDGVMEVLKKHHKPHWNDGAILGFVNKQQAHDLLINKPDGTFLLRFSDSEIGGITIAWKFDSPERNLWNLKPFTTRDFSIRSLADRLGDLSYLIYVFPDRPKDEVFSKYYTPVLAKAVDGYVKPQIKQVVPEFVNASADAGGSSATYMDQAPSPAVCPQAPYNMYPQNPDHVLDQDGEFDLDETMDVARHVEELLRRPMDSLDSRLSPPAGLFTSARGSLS
Put plainly: Fluorescence polarization (FP) binding assay, STAT5A. The note with it: FP competition, 5 nM fluorescein-labeled tracer, 200 nM protein, PBS pH7.4. The method, boiled down: as §1

In the case of `CC(C)(C)[C@H](NC(=O)c1cc2cc(C(F)(F)P(=O)(O)O)ccc2s1)C(=O)N1CCN(C(=O)OCc2ccccc2)C[C@H]1C(=O)Nc1ncc(-c2ccccc2)s1` [Compound 201, ((2-(((S)-1-((S)-4-((benzyloxy)carbonyl)-2-((5-phenylthiazol-2-yl)carbamoyl)piperazin-1-yl)-3,3-dimethyl-1-oxobutan-2-yl)carbamoyl)benzo[b]thiophen-5-yl)difluoromethyl)phosphonic acid], the pKi is 5.00 to 6.00 in assay [1] and 6.00 to 7.00 in assay [2].
As for `CC(C)(C)[C@H](NC(=O)c1cc2cc(C(F)(F)P(=O)(O)O)ccc2s1)C(=O)N1C[C@H](OCc2ccccc2)C[C@H]1C(=O)N1Cc2ccccc2C1` [Compound 202, ((2-(((S)-1-((2S,4R)-4-(benzyloxy)-2-(isoindoline-2-carbonyl)pyrrolidin-1-yl)-3,3-dimethyl-1-oxobutan-2-yl)carbamoyl)benzo[b]thiophen-5-yl)difluoromethyl)phosphonic acid], the pKi in assay [1] and in assay [2] was 5.00 to 6.00 each time.
Take `CC(C)(C)[C@H](NC(=O)c1cc2cc(C(F)(F)P(=O)(O)O)ccc2s1)C(=O)N1C[C@H](OCc2ccccc2)C[C@H]1C(=O)Nc1ncc(-c2ccccc2)s1` [Compound 203, ((2-(((S)-1-((2S,4R)-4-(benzyloxy)-2-((5-phenylthiazol-2-yl)carbamoyl)pyrrolidin-1-yl)-3,3-dimethyl-1-oxobutan-2-yl)carbamoyl)benzo[b]thiophen-5-yl)difluoromethyl)phosphonic acid]: the figures for the pKi in assay [1] and in assay [2] were 5.00 to 6.00 and 6.00 to 7.00, respectively.
For `CCOC(=O)CO[C@H]1C[C@@H](C(=O)Nc2ncc(-c3ccccc3)s2)N(C(=O)[C@@H](NC(=O)c2cc3cc(C(F)(F)P(=O)(O)O)ccc3s2)C(C)(C)C)C1` [Compound 205, ((2-(((S)-1-((2S,4S)-4-(2-ethoxy-2-oxoethoxy)-2-((5-phenylthiazol-2-yl)carbamoyl)pyrrolidin-1-yl)-3,3-dimethyl-1-oxobutan-2-yl)carbamoyl)benzo[b]thiophen-5-yl)difluoromethyl)phosphonic acid] the same measures were 5.00 to 6.00 and 5.00 to 6.00.
For the molecule `CCOC(=O)CO[C@@H]1C[C@@H](C(=O)Nc2ncc(-c3ccccc3)s2)N(C(=O)[C@@H](NC(=O)c2cc3cc(C(F)(F)P(=O)(O)O)ccc3s2)C(C)(C)C)C1` [Compound 206, ((2-(((S)-1-((2S,4R)-4-(2-ethoxy-2-oxoethoxy)-2-((5-phenylthiazol-2-yl)carbamoyl)pyrrolidin-1-yl)-3,3-dimethyl-1-oxobutan-2-yl)carbamoyl)benzo[b]thiophen-5-yl)difluoromethyl)phosphonic acid], the figures for the pKi in assay [1] and in assay [2] were 5.00 to 6.00 and 6.00 to 7.00, respectively.
With `CC(C)(C)[C@H](NC(=O)c1cc2cc(C(F)(F)P(=O)(O)O)ccc2s1)C(=O)N1C[C@@H](Oc2ccccc2)C[C@H]1C(=O)Nc1ncc(-c2ccccc2)s1` [Compound 207, ((2-(((S)-3,3-dimethyl-1-oxo-1-((2S,4S)-4-phenoxy-2-((5-phenylthiazol-2-yl)carbamoyl)pyrrolidin-1-yl)butan-2-yl)carbamoyl)benzo[b]thiophen-5-yl)difluoromethyl)phosphonic acid], the pKi in assay [1] and in assay [2] was 5.00 to 6.00 in each case.
Take `CC(C)(C)[C@H](NC(=O)c1cc2cc(C(F)(F)P(=O)(O)O)ccc2s1)C(=O)N1C[C@H](Oc2ccccc2)C[C@H]1C(=O)Nc1ncc(-c2ccccc2)s1` [Compound 208, ((2-(((S)-3,3-dimethyl-1-oxo-1-((2S,4R)-4-phenoxy-2-((5-phenylthiazol-2-yl)carbamoyl)pyrrolidin-1-yl)butan-2-yl)carbamoyl)benzo[b]thiophen-5-yl)difluoromethyl)phosphonic acid]: the figures for the pKi in assay [1] and in assay [2] were 5.00 to 6.00 and 6.00 to 7.00, respectively.
As to `CC(C)(C)[C@H](NC(=O)c1cc2cc(C(F)(F)P(=O)(O)O)ccc2s1)C(=O)N1C[C@@H](Oc2ccc3ccccc3c2)C[C@H]1C(=O)Nc1ncc(-c2ccccc2)s1` [Compound 209, ((2-(((S)-3,3-dimethyl-1-((2S,4S)-4-(naphthalen-2-yloxy)-2-((5-phenylthiazol-2-yl)carbamoyl)pyrrolidin-1-yl)-1-oxobutan-2-yl)carbamoyl)benzo[b]thiophen-5-yl)difluoromethyl)phosphonic acid], the pKi is 5.00 to 6.00 in assay [1] and less than 5.00 in assay [2].
For `CC(C)(C)[C@H](NC(=O)c1cc2cc(C(F)(F)P(=O)(O)O)ccc2s1)C(=O)N1C[C@H](Oc2ccc3ccccc3c2)C[C@H]1C(=O)Nc1ncc(-c2ccccc2)s1` [Compound 210, ((2-(((S)-3,3-dimethyl-1-((2S,4R)-4-(naphthalen-2-yloxy)-2-((5-phenylthiazol-2-yl)carbamoyl)pyrrolidin-1-yl)-1-oxobutan-2-yl)carbamoyl)benzo[b]thiophen-5-yl)difluoromethyl)phosphonic acid] the same measures were 5.00 to 6.00 and 5.00 to 6.00.
Turning to `CC(C)(C)[C@H](NC(=O)c1cc2cc(C(F)(F)P(=O)(O)O)ccc2s1)C(=O)N1CCC[C@H]1C(=O)Nc1ncc(Cc2ccccc2)s1` [Compound 211, ((2-(((S)-1-((S)-2-((5-benzylthiazol-2-yl)carbamoyl)pyrrolidin-1-yl)-3,3-dimethyl-1-oxobutan-2-yl)carbamoyl)benzo[b]thiophen-5-yl)difluoromethyl)phosphonic acid], the pKi in assay [1] is 6.00 to 7.00; in assay [2], 5.00 to 6.00.
Consider `CC(C)(C)[C@H](NC(=O)c1cc2cc(C(F)(F)P(=O)(O)O)ccc2s1)C(=O)N1CCC[C@H]1C(=O)Nc1nc(Cc2ccccc2)cs1` [Compound 212, ((2-(((S)-1-((S)-2-((4-benzylthiazol-2-yl)carbamoyl)pyrrolidin-1-yl)-3,3-dimethyl-1-oxobutan-2-yl)carbamoyl)benzo[b]thiophen-5-yl)difluoromethyl)phosphonic acid], for which the pKi in assay [1] and in assay [2] was 5.00 to 6.00 in each case.
Regarding `CC(C)(C)[C@H](NC(=O)c1cc2cc(C(F)(F)P(=O)(O)O)ccc2s1)C(=O)N1CCC[C@H]1C(=O)Nc1nc2ccccc2s1` [Compound 213, ((2-(((S)-1-((S)-2-(benzo[d]thiazol-2-ylcarbamoyl)pyrrolidin-1-yl)-3,3-dimethyl-1-oxobutan-2-yl)carbamoyl)benzo[b]thiophen-5-yl)difluoromethyl)phosphonic acid], the pKi in assay [1] is 5.00 to 6.00; in assay [2], less than 5.00.
For `CC(C)(C)[C@H](NC(=O)c1cc2cc(C(F)(F)P(=O)(O)O)ccc2s1)C(=O)N1CCC[C@H]1C(=O)N[C@H]1CCc2ccccc2C1` [Compound 214, ((2-(((S)-3,3-dimethyl-1-oxo-1-((S)-2-(((S)-1,2,3,4-tetrahydronaphthalen-2-yl)carbamoyl)pyrrolidin-1-yl)butan-2-yl)carbamoyl)benzo[b]thiophen-5-yl)difluoromethyl)phosphonic acid] the same measures were 5.00 to 6.00 and less than 5.00.
On to `CC(C)(C)[C@H](NC(=O)c1cc2cc(C(F)(F)P(=O)(O)O)ccc2s1)C(=O)N1CCC[C@H]1C(=O)N[C@@H]1CCc2ccccc2C1` [Compound 215, ((2-(((S)-3,3-dimethyl-1-oxo-1-((S)-2-(((R)-1,2,3,4-tetrahydronaphthalen-2-yl)carbamoyl)pyrrolidin-1-yl)butan-2-yl)carbamoyl)benzo[b]thiophen-5-yl)difluoromethyl)phosphonic acid], for which the pKi in assay [1] was 5.00 to 6.00; in assay [2], less than 5.00.
